The values below come from patent publication US9220721B2, “Methods for heart regeneration” (The Salk Institute for Biological Studies, priority 2012, dated 2015).

The test system of the series is cmlc2:GFP transgenic fish embryos. As to the kind of experiment: Morpholino and microRNA injections in zebrafish embryos. It is filed as in vivo. The note with it: injection at one-cell stage. The protocol:
Morpholino and microRNA Injections in Zebrafish Embryos. Morpholinos (Gene Tools) were dissolved in water at a 2 mM stock concentration and diluted to a 2 ng/nl working concentration in PBS/phenol red solution. Embryo injections were performed by injecting ˜1 nl morpholino solution at the 1-cell stage using a FemtoJet (Eppendorf). For microRNA mimic injection, a miR-99/100 equimolar mixture at 2 ng/nl in PBS was employed. Morphants were evaluated at 24, 48 and 72 h in a StereoLumar stereoscope (Zeiss).

As for “Smarca5 morpholino: translation-blocking morpholino 5′-CTTCTTCCCGCTGCTGCTCCATGCT-3′ (SEQ ID NO: 1129) (all phosphorodiamidate morpholino (PMO))”, the ventricle size result was “significantly reduced ventricle size”.
For “Fntb morpholino: translation-blocking morpholino 5′-GCGCCTCTTCCATGATGAGCTCTCA-3′ (SEQ ID NO: 1128) (all phosphorodiamidate morpholino (PMO))” the value was “significantly reduced ventricle size”.
